Experimental findings from US20240343747A1, “Heteroaryl compounds as inhibitors of TYK2, composition and application thereof” (Accro Bioscience (HK) Limited, priority 2021, published 2024) are described below.

≈ marks a conversion by molar mass, not a printed value.

Data set [1] can be described thus: Kinetic solubility test. It counts as physicochemical. To be noted: for kinetic solubility (in words): conclusion from Table 6; for solubility kinetic at 2 h: phosphate buffer, aqueous buffer, kinetic from dmso stock, 50 mM PB pH 7.4. The protocol:
• 1. 10 μL of test and control compounds (10 mM) in DMSO was added into lower chambers of Whatman mini-uniprep vials, respectively. • 2. Added 490 μL of 50 mM PB (pH 7.4) into lower chambers of the Whatman mini-uniprep vials, respectively. • 3. […] Shook the mini-uniprep vials on a Barnstead shaker for 2 hours at room temperature at the speed of 800 rpm. • 5. Centrifuged 20 minutes (e.g. 4000 rpm) • 6. Compressed mini-unipreps to prepare the filtrates for injection into UPLC system to calculate the concentration with standard curve.

The target of data set [2] is TYK2 (Mus musculus (Mouse), UniProt Q9R117). The experiment in a line: Luciferase assay in L929 ISRE cells stimulated with IFN-α. Type of data set: cell-based. The note with it: IFN-α 100 ng/mL; for inhibition at 0.1 µM: 100 nM, read-out: Inhibitory activity % (100 nM); for inhibition at 1 µM: 1000 nM, read-out: Inhibitory activity % (1000 nM); for inhibition at 0.05 µM: 50 nM, read-out: Inhibitory activity % (50 nM); for inhibition at 0.2 µM: 200 nM, read-out: Inhibitory activity % (200 nM). The protocol:
• 1. L929 ISRE cells (5000 cells/well) were seeded on 96-well plates and incubated overnight at room temperature; • 2. The cells were pretreated by adding different concentrations (10 nM, 50 nM, 100 nM, 200 nM or 1000 nM) of the test compounds for 2 hours; • 3. Added IFN-α (100 ng/mL) to stimulate cells for 6 hours; • 4. Removed the upper medium, add PBS (100 μL) and washed, then removed PBS; • 5. Added PLB lysis solution (50 μL) to each well, shook the well for 15 minutes; • 6. Transferred PLB lysis solution (30 μL) to a new 96-well whiteboard, added LAR II reagent (LAR II), then quickly read the […]; • 7. Added Stop & Glo reagent (30 μL), then read the 450 nm OD value using the plate washer. • 8. The final results in Table 3 were the OD value in step 6/OD value in step 7.

Data set [3] is described as follows: Plasma protein binding test, mouse. It counts as in vitro ADME. The procedure:
• 1. Test compound and control compound were dissolved in dimethyl sulfoxide (DMSO) to achieve 10 mM stock solutions. DMSO working solutions were prepared at 400 μM. To prepare the loading matrix, compound working solutions (5 μL) were added in a 1:200 ratio to blank matrix (995 μL), and mixed thoroughly. • 2. To prepare the time zero (TO) samples to be used for recovery determination, 50 μL aliquots of loading matrix were transferred in triplicate to the sample collection plate. The samples were immediately matched with opposite blank buffer to obtain a final volume of 100 μL of 1:1 matrix/dialysis buffer (v/v) in each well. 500 μL of stop solution were added to these TO samples. They were then stored at 2-8° C. pending further processes along with other post-dialysis samples. • 3. To load the dialysis device, an aliquot of 150 μL of the loading matrix was transferred to the donor side of each dialysis well in triplicate, and 150 μL of the dialysis buffer was loaded to the receiver side of the well. The dialysis plate was placed in a humidified incubator at 37° C. with 5% CO2 on a shaking platform that rotated slowly (about 100 rpm) for 4 hours • 4. At the end of the dialysis, aliquots of 50 μL of samples were taken from both the buffer side and the matrix side of the dialysis device. These samples were transferred into new 96-well plates. Each sample was mixed with an equal volume of opposite blank matrix (buffer or matrix) to reach a final volume of 100 μL of 1:1 matrix/dialysis buffer (v/v) in each well. All samples were further processed by adding 500 μL of stop solution containing internal standards. The mixture was vortexed and centrifuged at 4000 rpm for about 20 minutes. An aliquot of 100 μL of supernatant of all the samples was then removed for LC-MS/MS analysis • 5. The single blank samples were prepared by transferring […] of blank matrix to a 96 well plate and adding 50 μL of blank PBS buffer to each well. The blank plasma must match the species of plasma used in the plasma side of the well. […]
The % Unbound and % Bound were calculated using the following equations: […]

Data set [4] in a line: Plasma protein binding test, human. To be noted: for plasma protein binding (in words): conclusion from Table 7, all species tested; for fraction unbound at 4 h, 2 μM: human plasma. It counts as in vitro ADME. The procedure:
• 1. Test compound and control compound were dissolved in dimethyl sulfoxide (DMSO) to achieve 10 mM stock solutions. DMSO working solutions were prepared at 400 μM. To prepare the loading matrix, compound working solutions (5 μL) were added in a 1:200 ratio to blank matrix (995 μL), and mixed thoroughly. • 2. To prepare the time zero (TO) samples to be used for recovery determination, 50 μL aliquots of loading matrix were transferred in triplicate to the sample collection plate. The samples were immediately matched with opposite blank buffer to obtain a final volume of 100 μL of 1:1 matrix/dialysis buffer (v/v) in each well. 500 μL of stop solution were added to these TO samples. They were then stored at 2-8° C. pending further processes along with other post-dialysis samples. • 3. To load the dialysis device, an aliquot of 150 μL of the loading matrix was transferred to the donor side of each dialysis well in triplicate, and 150 μL of the dialysis buffer was loaded to the receiver side of the well. The dialysis plate was placed in a humidified incubator at 37° C. with 5% CO2 on a shaking platform that rotated slowly (about 100 rpm) for 4 hours • 4. At the end of the dialysis, aliquots of 50 μL of samples were taken from both the buffer side and the matrix side of the dialysis device. These samples were transferred into new 96-well plates. Each sample was mixed with an equal volume of opposite blank matrix (buffer or matrix) to reach a final volume of 100 μL of 1:1 matrix/dialysis buffer (v/v) in each well. All samples were further processed by adding 500 μL of stop solution containing internal standards. The mixture was vortexed and centrifuged at 4000 rpm for about 20 minutes. An aliquot of 100 μL of supernatant of all the samples was then removed for LC-MS/MS analysis • 5. The single blank samples were prepared by transferring […] of blank matrix to a 96 well plate and adding 50 μL of blank PBS buffer to each well. The blank plasma must match the species of plasma used in the plasma side of the well. Then the matrix-matched samples were further processed by adding 500 μL of stop solution containing internal standards, following the same sample processing method as the dialysis samples.
The % Unbound and % Bound were calculated using the following equations:
% Unbound=100×[F]/[T]; % Bound=100−% Unbound
Where [F] is the analyte concentration or peak area ratio of analyte/internal standard on the buffer (receiver) side of the membrane, [T] is the analyte concentration or peak area ratio of analyte/internal standard on the matrix (donor) side of the membrane, and [T0] is the analyte concentration or the peak area ratio of analyte/internal standard in the loading matrix sample at time zero.

A short description of data set [5]: Pharmacokinetic evaluation in rats. It counts as in vivo, rat. To be noted: for AUC / Vd / clearance / half-life / Cmax / Tmax: male, plasma; for AUC / Vd / clearance / half-life / Cmax / Tmax / F: rat; for plasma exposure and bioavailability in rat (in words): conclusion from Table 10. The procedure:
The rat pharmacokinetic characteristics of compounds were tested by standard protocols. The candidate compounds were made into clear solution for single intravenous injection (i.v.) and suspension for oral administration (p.o.). Intravenous vehicle is 5% DMSO+10% Solutol+85% Saline. Of which adjusts pH to 3 for B37. While oral vehicle is 0.5% CMCNa for B2 and B22, 5% DMSO+10% Solutol+85% Saline, pH˜3 for B37, 5% DMSO+10% Solutol+85% Saline for B41. The experiment used 6 male rats and 3 rats for intravenous at a dose of 2 mg/kg. Plasma samples were collected at 0 h (before dosing) and 0.083 h, 0.25 h, 0.5 h, 1 h, 2 h, 4 h, 8 h, 24 h after dosing. 3 rats were orally administrated at a dose of 10 mg/kg. Plasma samples were collected at 0 h (before dosing) and 0.25 h, 0.5 h, 1 h, 2 h, 4 h, 6 h, 8 h, 24 h after dosing.
Blood samples were placed in tubes containing K2-EDTA and stored on ice until centrifuged. The blood samples were centrifuged at 6800 g for 6 minutes at 2-8° C. within 1 h after collected, and stored frozen at approximately −80° C.
The analytical results were confirmed using quality control samples for intra-assay variation. The accuracy of >66.7% of the quality control samples and 50% of all QC samples at each concentration level were between 80-120% of the known value(s).
Standard set of parameters including area under the curve (AUC(0-t) and AUC(0-∞)), elimination half-live (T1/2), maximum plasma concentration (Cmax), time to reach maximum plasma concentration (Tmax) were calculated using noncompartmental analysis modules in FDA certified pharmacokinetic program Phoenix WinNonlin 7.0 (Pharsight, USA) by the Study Director.

TYK2, sequence (Q9R117 whole entry): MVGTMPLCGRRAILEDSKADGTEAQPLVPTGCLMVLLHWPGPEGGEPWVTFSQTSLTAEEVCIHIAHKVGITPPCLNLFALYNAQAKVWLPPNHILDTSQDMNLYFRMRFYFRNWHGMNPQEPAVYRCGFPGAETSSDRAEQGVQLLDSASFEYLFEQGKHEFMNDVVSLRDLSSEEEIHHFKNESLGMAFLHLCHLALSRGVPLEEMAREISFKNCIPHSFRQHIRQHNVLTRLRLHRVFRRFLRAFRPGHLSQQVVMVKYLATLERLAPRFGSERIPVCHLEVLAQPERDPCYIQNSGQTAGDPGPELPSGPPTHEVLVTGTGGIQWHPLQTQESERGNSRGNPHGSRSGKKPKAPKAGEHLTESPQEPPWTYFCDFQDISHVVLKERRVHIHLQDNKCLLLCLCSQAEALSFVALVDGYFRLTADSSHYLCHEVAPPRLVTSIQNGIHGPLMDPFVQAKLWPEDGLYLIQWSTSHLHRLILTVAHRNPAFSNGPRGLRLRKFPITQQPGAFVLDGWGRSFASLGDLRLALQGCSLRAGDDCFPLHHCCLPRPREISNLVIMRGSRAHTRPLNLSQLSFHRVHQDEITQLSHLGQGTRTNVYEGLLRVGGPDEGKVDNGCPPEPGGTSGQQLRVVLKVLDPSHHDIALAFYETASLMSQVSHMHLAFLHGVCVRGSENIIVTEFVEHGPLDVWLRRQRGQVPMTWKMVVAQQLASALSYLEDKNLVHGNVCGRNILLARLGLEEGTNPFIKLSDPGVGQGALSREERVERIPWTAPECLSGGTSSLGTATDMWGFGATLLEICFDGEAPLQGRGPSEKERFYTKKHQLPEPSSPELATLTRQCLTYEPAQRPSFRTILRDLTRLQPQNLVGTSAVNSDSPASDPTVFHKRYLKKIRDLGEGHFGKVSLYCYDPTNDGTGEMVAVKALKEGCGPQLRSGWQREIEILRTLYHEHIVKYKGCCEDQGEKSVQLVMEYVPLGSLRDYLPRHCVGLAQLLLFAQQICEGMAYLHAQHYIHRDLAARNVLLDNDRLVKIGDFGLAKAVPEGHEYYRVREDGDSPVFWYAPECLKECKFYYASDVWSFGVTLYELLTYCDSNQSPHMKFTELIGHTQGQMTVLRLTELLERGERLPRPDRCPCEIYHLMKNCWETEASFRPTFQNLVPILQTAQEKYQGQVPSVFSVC

For `[2H]C([2H])([2H])n1nc(-c2cccc(Nc3cc(NC(=O)C4CC4)ncc3C(=O)CC)c2OC)cc1P(C)(C)=O` [Compound B22], in data set [1], the “kinetic solubility (in words)” value is on record as “good” and the kinetic solubility at 2 h came out at 91.9 µM (≈ 45.8 µg/mL). Moreover, in data set [2], the inhibition at 0.1 µM turned out to be 43% and the inhibition at 1 µM was determined as 83%. The compound further showed a fraction unbound at 4 h, 2 μM in data set [3] of 0.03. Moreover, in data set [4], the “plasma protein binding (in words)” value is “moderate to high” and the unbound share (fraction unbound) at 4 h, 2 μM is 0.051. Also, in data set [5] (iv, i.v. 2 mg/kg), the exposure (AUC) amounted to 2670 ng·h/mL, the distribution volume (Vd) amounted to 1.4 L/kg, the clearance turned out to be 12.7 mL/min/kg and the half-life was 1.3 h. In data set [5] (po, p.o. 10 mg/kg), the AUC came to 2280 ng·h/mL, the Cmax stood at 694 ng/mL and the time to peak (Tmax) was found to be 1.83 h. This compound also yielded a F in data set [5] (p.o. 10 mg/kg) of 17%.

`CCC(=O)c1cnc(NC(=O)C2CC2)cc1Nc1cccc(-c2cc(P(=O)(C3CC3)C3CC3)n(C)n2)c1OC` [Compound B37, N-(4-((3-(5-(dicyclopropylphosphoryl)-1-methyl-1H-pyrazol-3-yl)-2-methoxyphenyl)amino)-5-propionylpyridin-2-yl)cyclopropanecarboxamide]: in data set [2], the inhibition at 0.05 µM turned out to be 89%, the inhibition at 0.2 µM was 95% and the inhibition at 1 µM was determined as 97%. The “plasma exposure and bioavailability in rat (in words)” value (“plasma exposure and bioavailability” below) in data set [5] is “good plasma exposure and bioavailability”. In data set [5] (iv, i.v. 2 mg/kg), the AUC stood at 3090 ng·h/mL, the Vd is 0.9 L/kg, the clearance was 10.9 mL/min/kg and the half-life is 0.96 h. For the same compound, in data set [5] (po, p.o. 10 mg/kg), the AUC turned out to be 9420 ng·h/mL, the highest concentration (Cmax) stood at 1890 ng/mL and the Tmax was found to be 2.05 h. Moreover, in data set [5] (p.o. 10 mg/kg), the F is recorded as 61%.

In the case of `[2H]C([2H])([2H])NC(=O)c1nnc(NC(=O)C2CC2)cc1Nc1cccc(-c2cc(P(=O)(C3CC3)C3CC3)n(C)n2)c1OC` [Compound B41, 6-(cyclopropanecarboxamido)-4-((3-(5-(dicyclopropylphosphoryl)-1-methyl-1H-pyrazol-3-yl)-2-methoxyphenyl)amino)-N-(methyl-d3)pyridazine-3-carboxamide], in data set [1], the “kinetic solubility (in words)” value is “low to moderate” and the kinetic solubility at 2 h was found to be 11.3 µM (≈ 6.24 µg/mL). Moreover, in data set [2], the inhibition at 0.05 µM came to 86%, the inhibition at 0.2 µM was 92% and the inhibition at 1 µM turned out to be 97%. Also, the free fraction (fraction unbound) at 4 h, 2 μM in data set [3] was 0.018. In data set [4], the “plasma protein binding (in words)” value is on record as “moderate to high” and the unbound share (fraction unbound) at 4 h, 2 μM was 0.084. The “plasma exposure and bioavailability” value in data set [5] was “good plasma exposure and bioavailability”. In data set [5] (iv, i.v. 2 mg/kg), this compound showed an AUC of 2880 ng·h/mL, a Vd of 1 L/kg, a clearance of 11.6 mL/min/kg and a half-life of 1 h. Also, in data set [5] (po, p.o. 10 mg/kg), the area under the curve (AUC) was 6900 ng·h/mL, the Cmax was 1800 ng/mL and the Tmax is 2.83 h. This compound also displayed a F in data set [5] (p.o. 10 mg/kg) of 48%.

`CCC(=O)c1cnc(NC(=O)C2CC2)cc1Nc1cccc(-c2cc(P(C)(C)=O)n(C)n2)c1OC` [Compound B2, N-(4-((3-(5-(dimethylphosphoryl)-1-methyl-1H-pyrazol-3-yl)-2-methoxyphenyl)amino)-5-propionylpyridin-2-yl)cyclopropanecarboxamide]: in data set [1], the “kinetic solubility (in words)” value was “good” and the kinetic solubility at 2 h is 52.4 µM (≈ 26 µg/mL). Besides, the inhibition at 0.01 µM in data set [2] (10 nM, read-out: Inhibitory activity % (10 nM)) stood at 45%. In data set [2], the inhibition at 0.1 µM amounted to 58% and the inhibition at 1 µM came out at 94%. Further, the free fraction (fraction unbound) at 4 h, 2 μM in data set [3] was 0.067. Also, in data set [4], the “plasma protein binding (in words)” value is “moderate to high” and the fraction unbound at 4 h, 2 μM was 0.048. Also, in data set [5], the “plasma exposure and bioavailability” value is “good plasma exposure and bioavailability”. Besides, in data set [5] (iv, i.v. 2 mg/kg), the AUC was determined as 2430 ng·h/mL, the Vd is 1.5 L/kg, the clearance is 13.8 mL/min/kg and the half-life is 1.3 h. Moreover, in data set [5] (po, p.o. 10 mg/kg), the area under the curve (AUC) was found to be 5900 ng·h/mL, the peak concentration (Cmax) was determined as 2020 ng/mL and the time of peak concentration (Tmax) was 0.67 h. Besides, the F in data set [5] (p.o. 10 mg/kg) came out at 49%.
